Test results: patent publication US9636286B2, “Antimicrobial cleanser” (Coloplast A/S, priority 2013, dated 2017)

Tests used:
[1] = system: reconstructed human epidermis (RhE) model; parameters: unit not given beside the values; settings: known irritants and non-irritants given as examples of the scale; cited from earlier work
[2] = system: reconstructed human epidermis (RhE) model; assay: In vitro irritancy, EpiDerm MTT ET50 Protocol (EPI-200), Example 1; format: cell-based
Protocol: In vitro irritancy was tested using a commercially available kit “EpiDerm MTT ET50 Protocol (EPI-200)”, available from MatTek Corporation (Ashland, Mass.). The test kit is used as a validated replacement for in vivo irritation testing otherwise known as “Draize testing”, in the EU (OECD TG439). Our method of data analysis and outcome prediction is altered slightly to determine relative differences in irritation potential between experimental neat materials tested within the same kit.
The test consists of a topical exposure of the neat experimental material to a reconstructed human epidermis (RhE) model followed by a cell viability assay. The cell viability test method is based on the enzymatic conversion of mitochondrial dehydrogenase with MTT [(3-4,5-dimethyl thiazole-2-yl) 2,5-diphenyltetrazolium bromide], resulting in a blue formazan salt, which is than extracted from the tissues and quantitated. […]
EpiDerm tissues are conditioned overnight at 37±2° C., 5% CO2, to relieve stress from the shipping process. […] After the three hour incubation in MTT, the formazan salt is extracted using 2.0 mL of isopropanol and the optical density (OD) of each sample is measured at 570 nm. Relative cell viability is calculated as a % of the mean of the negative control tissue. Dose-response curves are constructed for each sample and an ET50 value is calculated. […]

Molecule	ET50 (Irritancy Scale, example substances) [1]	Expected In vivo Irritancy Score ([2]; from ET50 by Irritancy Scale)	ET50 Value ([2]; neat material, exposure 1, 4 or 24 hrs, time to reduce cell viability to 50%) [h]
O=[N+]([O-])O [Nitric Acid]	<0.5	–	–
Triton X-100 [1.0% Triton X-100]	4-12	very mild (12-24)	12.69
CCCCCCCCCCCCOS(=O)(=O)[O-].[Na+] [1% SDS, SDS]	0.5-4	–	–
